Reference: patent publication US10941157B2, “Pesticidal compositions and uses thereof” (Gilead Apollo, LLC, priority 2015, dated 2021)
≈ marks a conversion by molar mass, not a printed value. Where two headings read alike, the source gives them in different places.

Tests used:
Assay type in all cases: cell-based
[1] = tested on: Phytophthora capsici (Pc); experiment: In vitro pathogen growth inhibition assay, Pc; settings: 48 h
How it was run: (§1)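 Spores of Dm, Fv and Pc were diluted in 17% V8 liquid medium; Rs used 1.5 mm mycelial plugs in ¼ PDB. Compounds from 2.5 mg/ml DMSO stocks were combined with inoculum, growth was read by OD600 at 24 and 48 h with blank subtraction, and the reported value is the concentration giving ≥90% inhibition.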

[2] = tested on: Fusarium virguliforme (Fv); experiment: In vitro pathogen growth inhibition assay, Fv
How it was run: as §1

[3] = tested on: Collectotrichum graminicola (Cg); experiment: In vitro pathogen growth inhibition assay, Cg; settings: 48 h
How it was run: (§2)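 Spores in 17% V8 liquid medium, or 1.5 mm Rs mycelial plugs in ¼ PDB, incubated with compound; final concentration checked by OD600 for precipitation. OD readings at 24 and 48 h, blank-subtracted, plus visual ratings; value is concentration giving ≥90% growth inhibition.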

Rhizoctonia solani (Rs) = experiment: In vitro pathogen growth inhibition assay, Rs (mycelial plugs); settings: Rhizoctonia solani, 48 h
How it was run: as §1

Diplodia maydis (Dm) = experiment: In vitro pathogen growth inhibition assay, Dm; settings: Stenocarpella maydis, 48 h
How it was run: as §1

[4] = tested on: Fusarium moniliforme (Fm); experiment: In vitro pathogen growth inhibition assay, Fm; settings: Fusarium verticillioides
How it was run: as §2

Septoria tritici (St) = experiment: In vitro pathogen growth inhibition assay, St; settings: Zymoseptoria tritici, 48 h
How it was run: as §2

Botrtyis cinerea (Bc) = experiment: In vitro pathogen growth inhibition assay, Bc; settings: 48 h
How it was run: as §2

[5] = ≥90% inhibition, 48 hours vs 2% DMSO control, read-out: Compound Concentration (ppm) sufficient for ≥90% inhibition of growth, Pc
[6] = ≥90% inhibition, 48 hours vs 2% DMSO control, read-out: Compound Concentration (ppm) sufficient for ≥90% inhibition of growth, Fv
[7] = ≥90% inhibition, 48 hours vs 2% DMSO control, read-out: Compound Concentration (ppm) sufficient for ≥90% inhibition of growth, Cg
[8] = ≥90% inhibition, mycelial plugs, 48 hours vs 2% DMSO control, read-out: Compound Concentration (ppm) sufficient for ≥90% inhibition of growth, Rs
[9] = ≥90% inhibition, 48 hours vs 2% DMSO control, read-out: Compound Concentration (ppm) sufficient for ≥90% inhibition of growth, Dm
[10] = ≥90% inhibition, 48 hours vs 2% DMSO control, read-out: Compound Concentration (ppm) sufficient for ≥90% inhibition of growth, Fm
[11] = ≥90% inhibition, 48 hours vs 2% DMSO control, read-out: Compound Concentration (ppm) sufficient for ≥90% inhibition of growth, St
[12] = ≥90% inhibition, 48 hours vs 2% DMSO control, read-out: Compound Concentration (ppm) sufficient for ≥90% inhibition of growth, Bc
[13] = ≥90% growth inhibition, 48 hours, vs 2% DMSO control, read-out: Compound Concentration (ppm) sufficient for ≥90% inhibition of Pc
[14] = ≥90% growth inhibition, 48 hours, vs 2% DMSO control, read-out: Compound Concentration (ppm) sufficient for ≥90% inhibition of Fv
[15] = ≥90% growth inhibition, 48 hours, vs 2% DMSO control, read-out: Compound Concentration (ppm) sufficient for ≥90% inhibition of Cg
[16] = ≥90% growth inhibition, mycelial plugs, 48 hours, vs 2% DMSO control, read-out: Compound Concentration (ppm) sufficient for ≥90% inhibition of Rs
[17] = ≥90% growth inhibition, 48 hours, vs 2% DMSO control, read-out: Compound Concentration (ppm) sufficient for ≥90% inhibition of Dm
[18] = ≥90% growth inhibition, 48 hours, vs 2% DMSO control, read-out: Compound Concentration (ppm) sufficient for ≥90% inhibition of Fm
[19] = ≥90% growth inhibition, 48 hours, vs 2% DMSO control, read-out: Compound Concentration (ppm) sufficient for ≥90% inhibition of St
[20] = ≥90% growth inhibition, 48 hours, vs 2% DMSO control, read-out: Compound Concentration (ppm) sufficient for ≥90% inhibition of Bc

| IC90 [1, 5] [µg/mL] | IC90 [2, 6] [µg/mL] | IC90 [3, 7] [µg/mL] | IC90 (Rhizoctonia solani (Rs); [8]) [µg/mL] | IC90 (Diplodia maydis (Dm); [9]) [µg/mL] | IC90 [4, 10] [µg/mL] | IC90 (Septoria tritici (St); [11]) [µg/mL] | IC90 (Botrtyis cinerea (Bc); [12]) [µg/mL] | Compound | other results |
| --- | --- | --- | --- | --- | --- | --- | --- | --- | --- |
| 10 (≈ 15.6 µM) | 0.4 (≈ 0.624 µM) | 0.4 (≈ 0.624 µM) | 0.08 (≈ 0.125 µM) | 0.4 (≈ 0.624 µM) | 0.08 (≈ 0.125 µM) | ≥ 2 | 0.4 (≈ 0.624 µM) | COc1ccc(F)cc1[C@H](Cn1c(=O)n(C(C)(C)C(=O)NC2CCC2)c(=O)c2c(C)c(-n3nccn3)sc21)OC1CCOCC1 [Compound I-038] | – |
| > 50 | > 50 | 10 (≈ 16.5 µM) | 50 (≈ 82.3 µM) | ≥ 2 | 0.4 (≈ 0.658 µM) | > 50 | 2 (≈ 3.29 µM) | COc1ccccc1[C@H](Cn1c(=O)n(C(C)(C)C(=O)N2CCCCC2)c(=O)c2c(C)c(-n3cccn3)sc21)OCC(C)C [Compound I-121] | – |
| – | – | – | – | – | – | – | – | CCNC(=O)C(C)(C)n1c(=O)c2c(C)c(-n3cccn3)sc2n(C[C@H](OCCC#N)c2cc(F)ccc2OC)c1=O [Compound I-235] | IC90 [1, 13]: > 50 µg/mL; IC90 [2, 14]: 2 µg/mL (≈ 3.43 µM); IC90 [3, 15]: 2 µg/mL (≈ 3.43 µM); IC90 (Rhizoctonia solani (Rs); [16]): 2 µg/mL (≈ 3.43 µM); IC90 (Diplodia maydis (Dm); [17]): ≥ 2 µg/mL; IC90 [4, 18]: 0.4 µg/mL (≈ 0.687 µM); IC90 (Septoria tritici (St); [19]): > 50 µg/mL; IC90 (Botrtyis cinerea (Bc); [20]): 2 µg/mL (≈ 3.43 µM) |
| > 50 | 0.4 (≈ 0.699 µM) | 2 (≈ 3.49 µM) | 0.08 (≈ 0.14 µM) | 2 (≈ 3.49 µM) | 0.08 (≈ 0.14 µM) | > 50 | 0.08 (≈ 0.14 µM) | COc1ccc(F)cc1[C@H](Cn1c(=O)n(CC(=O)N2CCCC2)c(=O)c2c(C)c(-n3nccn3)sc21)OCCO [Compound I-088] | – |
| > 50 | 0.4 (≈ 0.611 µM) | 0.08 (≈ 0.122 µM) | 0.08 (≈ 0.122 µM) | ≥ 0.08 | 0.08 (≈ 0.122 µM) | ≥ 2 | 0.4 (≈ 0.611 µM) | COc1ccc(F)cc1[C@H](Cn1c(=O)n(C(C)(C)C(=O)N2CCCCC2)c(=O)c2c(C)c(-n3nccn3)sc21)OC1CCOCC1 [Compound I-036] | – |
| – | – | – | – | – | – | – | – | COc1ccc(F)cc1[C@H](Cn1c(=O)n(C(C)(C)C(=O)N2CCCC2)c(=O)c2c(C)c(-n3cccn3)sc21)OCCC#N [Compound I-203] | IC90 ([1]; concentration sufficient to ≥90% inhibition of growth, 48 hours vs 2% DMSO control, read-out: Compound Concentration (ppm) for ≥90% inhibition, Pc): > 50 µg/mL; IC90 ([2]; concentration sufficient to ≥90% inhibition of growth, 48 hours vs 2% DMSO control, read-out: Compound Concentration (ppm) for ≥90% inhibition, Fv): 50 µg/mL (≈ 82.1 µM); IC90 ([3]; concentration sufficient to ≥90% inhibition of growth, 48 hours vs 2% DMSO control, read-out: Compound Concentration (ppm) for ≥90% inhibition, Cg): 50 µg/mL (≈ 82.1 µM); IC90 (Rhizoctonia solani (Rs); concentration sufficient to ≥90% inhibition of growth, 48 hours vs 2% DMSO control, read-out: Compound Concentration (ppm) for ≥90% inhibition, Rs): 10 µg/mL (≈ 16.4 µM); IC90 (Diplodia maydis (Dm); concentration sufficient to ≥90% inhibition of growth, 48 hours vs 2% DMSO control, read-out: Compound Concentration (ppm) for ≥90% inhibition, Dm): 50 µg/mL (≈ 82.1 µM); IC90 ([4]; concentration sufficient to ≥90% inhibition of growth, 48 hours vs 2% DMSO control, read-out: Compound Concentration (ppm) for ≥90% inhibition, Fm): 10 µg/mL (≈ 16.4 µM); IC90 (Septoria tritici (St); concentration sufficient to ≥90% inhibition of growth, 48 hours vs 2% DMSO control, read-out: Compound Concentration (ppm) for ≥90% inhibition, St): > 50 µg/mL; IC90 (Botrtyis cinerea (Bc); concentration sufficient to ≥90% inhibition of growth, 48 hours vs 2% DMSO control, read-out: Compound Concentration (ppm) for ≥90% inhibition, Bc): 50 µg/mL (≈ 82.1 µM) |
| – | – | – | – | – | – | – | – | CCNC(=O)[C@H](C)n1c(=O)c2c(C)c(-n3nccn3)sc2n(C[C@H](OCCC#N)c2cc(F)ccc2OC)c1=O [Compound I-290] | IC90 [1, 13]: > 50 µg/mL; IC90 [2, 14]: 10 µg/mL (≈ 17.6 µM); IC90 [3, 15]: 10 µg/mL (≈ 17.6 µM); IC90 (Rhizoctonia solani (Rs); [16]): 2 µg/mL (≈ 3.51 µM); IC90 (Diplodia maydis (Dm); [17]): ≥ 10 µg/mL; IC90 [4, 18]: 0.4 µg/mL (≈ 0.702 µM); IC90 (Septoria tritici (St); [19]): > 50 µg/mL; IC90 (Botrtyis cinerea (Bc); [20]): 2 µg/mL (≈ 3.51 µM) |
